Patent US6770299B1, “Lipid matrix-drug conjugates particle for controlled release of active ingredient” (PharmaSol GmbH, priority 1999, dated 2004)

Experiments:
[1] = test system: HL 60 tumor cells (human myeloid leukemia cell line); assay: Differentiation of HL 60 tumor cells, NBT reduction; assay type: cell-based; details: HL 60 cells, free tributyrin dissolved in ethanol
Method: The effectiveness of tributyrin drug vehicles was measured in HL 60 tumor cells (human myeloid leukemia cell line). HL 60 cells are a sensitive indicator of the effect of tributyrin. It brings about a differentiation of the tumor cells to granulocyte-like cells. The latter have the property of reducing NBT (nitro-blue tetrazolium) to a blue dye (H. P. Koeffler et al. Blood 62 1 (983) 709-721). Tributyrin-compritol particles, consisting of equal parts of tributyrin and compritol (glycerine tribehenate) were prepared as in Example 1. The overall lipid concentration was 5%, the Poloxamer 188 concentration likewise 5%. The particle size was 147 nm (PCS diameter), the polydispersion index 0.321. The differentiation effect was compared with that of free tributyrin, dissolved in ethanol. […] An adequate quantity of tributyrin-compritol nanoparticle dispersion was, like the corresponding quantities of surfactant solution and pure compritol particle dispersion, added to HL 60 cells and the NBT reduction ascertained after 6 days' incubation time at 37° C. and 5% carbon dioxide content.

solid tumors = details: oral preparation, phase 1 study; cited from earlier work

CCCC(=O)OCC(COC(=O)CCC)OC(=O)CCC [tributyrin, 1,2,3 butyric acid glycerol ester]
effective 50% dosage (ED 50%), differentiation effect [1]: 130 µM | tumor regression (solid tumors): No significant tumor regression
